Tests used:
[1] = biological target: T1, 5-hydroxytryptamine receptor 6 (Homo sapiens, UniProt P50406); test: Displacement of [3H]LSD from human 5HT6 receptor expressed in HeLa cells; assay type: cell-based
[2] = biological target: T1, 5-hydroxytryptamine receptor 6; test: Agonist activity at human 5HT6 receptor expressed in HeLa cells assessed as cAMP production; assay type: functional, cell-based

T1 sequence (P50406 whole entry): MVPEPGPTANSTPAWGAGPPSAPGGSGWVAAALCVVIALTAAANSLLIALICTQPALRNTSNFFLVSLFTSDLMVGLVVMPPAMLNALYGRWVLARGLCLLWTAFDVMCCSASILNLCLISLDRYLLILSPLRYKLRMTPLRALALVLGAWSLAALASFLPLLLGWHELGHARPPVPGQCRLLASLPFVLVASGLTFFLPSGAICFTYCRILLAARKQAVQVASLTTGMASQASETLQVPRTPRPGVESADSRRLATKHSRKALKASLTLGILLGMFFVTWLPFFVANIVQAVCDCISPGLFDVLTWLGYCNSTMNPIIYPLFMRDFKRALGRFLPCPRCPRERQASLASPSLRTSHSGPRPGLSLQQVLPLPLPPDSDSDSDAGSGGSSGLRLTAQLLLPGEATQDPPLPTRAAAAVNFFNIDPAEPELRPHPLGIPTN

| SMILES | Ki [1] [nM] | EC50 [2] [nM] | Emax [2] [%] |
| --- | --- | --- | --- |
| NCCc1cn(S(=O)(=O)c2cc(Cl)c(Cl)s2)c2ccccc12 | 31 |  |  |
| NCCc1cn(S(=O)(=O)c2cccc(Cl)c2)c2ccccc12 | 6 | 108 | 100 |
| NCCc1cn(S(=O)(=O)c2ccc(I)cc2)c2ccccc12 | 14 |  |  |
| NCCc1cn(S(=O)(=O)c2ccc(N)cc2)c2ccccc12 | 1 | 91 | 73 |
| CN(C)CCn1cc(S(=O)(=O)c2cccc(F)c2)c2ccccc21 | 10.3 |  |  |
